In patent US20220284983A1, “METHODS OF IDENTIFYING CIS-REGULATORY ELEMENTS AND USES THEREOF” (UNIVERSITY HEALTH NETWORK, priority 2019, published 2022) one finds Fold change data, which are given here for two compounds.

For this experiment, the system named is 16 breast cancer cell lines. In words: Drug response of 16 breast cancer cell lines (GRAY dataset, PharmacoGx) compared by presence or absence of CREAM-identified COREs. Type of experiment: cell-based. The conditions noted are these: >1 = higher sensitivity when CORE present. An excerpt: For example, in methods involving assessing drug sensitivity, for each CORE, average drug sensitivity of the samples with that CORE can be divided to the average drug sensitivity of the samples without that CORE. Then the COREs can be sorted based on the obtained fold changes and COREs with top fold changes can be selected.
Therefore, in some embodiments, the top COREs can be determined as being the COREs with a minimum FDR (False Discovery Rate) after significance after multiple hypothesis correction with dindex>1 (where dindex is a measure of hazard). The FDR indicates the significance or effect of association between existence (in the case of binary features using COREs) or values of that feature and the output value (like drug sensitivity in case of biomarker discovery). The FDR is a corrected p-value for multiple hypothesis. Then the COREs that exist in less than N samples may be further filtered. The value of N may be 2 or more and depends on the particular COREs and the prognosis being predicted. For some studies described herein N was chosen to be 5. As an optional step, the remaining COREs may be combined to result in the CORE signatures that may be used for a multivariate model. In some embodiments, Fold Change may be used instead of FDR in which case for each CORE, the average drug sensitivity of the samples with that CORE can be divided by the average drug sensitivity of the samples without that CORE. Then the COREs can be sorted based on the obtained fold changes and the COREs with the top fold changes can be selected.
CREAM was tested for biomarker discovery, for drug response, using 16 breast cancer cell lines (AU565, BT549, HCC1143, HCC1395, HCC1419, HCC1806, HCC1937, HCC3153, HCC38, HCC70, MDAMB157, MDAMB361, MDAMB453, MX1, T47D, ZR751) with available ATAC-seq profiles and response to PD98059 (a non-ATP competitive MEK inhibitor), and Floxuridine (an antimetabolite agent), as part of the data available in PharmacoGx R package (version 2.0.5) developed by Haibe-Kains laboratory. There are currently no known biomarker for response to PD98059 and Floxuridine.
The columns in each Table are: 1) chromosome regions of the COREs; 2) pvalue; 3) Fold change.
Fold change tells you if presence of a CORE results in higher or lower sensitivity. If Fold Change is great than 1, it means that presence of a CORE results in higher sensitivity and Fold Change is less than 1, it means that presence of a CORE results in lower sensitivity.

Each structure is given as a SMILES string.

As to `O=c1[nH]c(=O)n([C@H]2C[C@H](O)[C@@H](CO)O2)cc1F` [Floxuridine], the Fold change reads like this: (Floxuridine sensitivity with vs without CORE chr2-36473442-37039510) 0.6674; (Floxuridine sensitivity with vs without CORE chr3-69004922-69292456) 0.6617; (Floxuridine sensitivity with vs without CORE chr4-99547495-99584170) 0.5406; (Floxuridine sensitivity with vs without CORE chr5-167696005-167914094) 0.629; (Floxuridine sensitivity with vs without CORE chr6-16577121-16782003) 0.5777; (Floxuridine sensitivity with vs without CORE chr15-60619092-60725509) 0.7009. Besides, the Fold change is, setting by setting: (Floxuridine sensitivity with vs without CORE chr16-29801700-30154789) 1.653; (Floxuridine sensitivity with vs without CORE chr16-67184267-67407032) 2.017; (Floxuridine sensitivity with vs without CORE chr17-21102597-21252333) 0.699.
For `COc1cccc(-c2cc(=O)c3ccccc3o2)c1N` [PD98059], the Fold change (PD98059 sensitivity with vs without CORE chr2-75602732-75966190) is 0.5231; the Fold change (PD98059 sensitivity with vs without CORE chr6-126063660-126362254) came out at 0.4327; the Fold change (PD98059 sensitivity with vs without CORE chr7-54328557-56189467) is 0.5362; the Fold change (PD98059 sensitivity with vs without CORE chr9-75681937-75835570) came to 0.538; the Fold change (PD98059 sensitivity with vs without CORE chr9-103348375-103365047) is 0.4902; the Fold change (PD98059 sensitivity with vs without CORE chr9-130150616-131799038) was determined as 1.906. The Fold change reads like this: (PD98059 sensitivity with vs without CORE chr9-139257512-140211180) 1.864; (PD98059 sensitivity with vs without CORE chr11-694436-876984) 2.17; (PD98059 sensitivity with vs without CORE chr11-34183346-34607941) 1.859; (PD98059 sensitivity with vs without CORE chr15-40330702-40453457) 2.206; (PD98059 sensitivity with vs without CORE chr16-4965308-5008584) 1.983; (PD98059 sensitivity with vs without CORE chr16-53766187-53861966) 0.4902. Moreover, the Fold change worked out at 0.5247 (PD98059 sensitivity with vs without CORE chr17-21102597-21252333), 1.904 (PD98059 sensitivity with vs without CORE chr19-45765981-46636866) and 0.5253 (PD98059 sensitivity with vs without CORE chr20-9819285-10752699).
